Measurements as given in patent US8580818B2, “Combination drug containing probucol and a tetrazolylalkoxy-dihydrocarbostyril derivative with superoxide supressant effects” (Otsuka Pharmaceutical Co., Ltd., priority 2005, dated 2013).

What was measured:
[1] = tested on: Otsuka Long-Evans Tokushima Fatty (OLETF) male rats; experiment: Urinary excretion of glucose and insulin resistance in OLETF rats on high-fat diet; assay type: in vivo; settings: eleventh week; for urinary glucose, mean±SD: 0.3% Cilostazol and/or 0.5% Probucol in diet, control 186±171 mg/dl; for effect on plasma glucose: 0.3% Cilostazol or 0.5% Probucol in diet, control 162±16 mg/dl
Protocol: Otsuka Long-Evans Tokushima Fatty (OLETF) male rats (6 week olds) were divided randomly into the following four groups depending on the body weights by stratified randomized method (using SAS Software, R8.1): Immediately after the randomized grouping, high-fat diet (commercially available feed (CRF-1, manufactured by Oriental Yeast Industries Co., LTD.) supplemented with cholesterol (1.25%), sodium cholate (0.5%) and cacao butter (15%)) was administered to the mice in each group in order to promote the onset of renal disease. In the test-material administered groups, the high-fat diet combined with the test material was administered to each mouse immediately after grouping. In the eleventh week after initiation of feeding, the mice were bled from the tail vein without anesthetization, and the plasma glucose and insulin level in plasma were measured. Separately, the urine was taken, and the urinary glucose was measured. Glucose was measured by an enzymatic method using a commercially available kit for measuring glucose, and the insulin was measured by a commercially available ELISA kit. 1) In order to confirm the synergistic effects of the combination of Cilostazol and Probucol, two-way ANOVA was carried out between the control group and the Cilostazol-administered group as well as between the Probucol-administered group and two agents-administered group, and thereby the interaction was observed. 2) The effects in Cilostazol- and Probucol-administered group were compared with the effects in control group by Dunnett's test. Moreover, the effects in Cilostazol- and Probucol-administered group were compared with the effects in Cilostazol+Probucol-administered group by Dunnett's test. All tests were done by two-sided test with significant level of 5%, by means of SAS Software (SAS Institute Japan, R8.1). The data were shown by mean±SD (n).

[2] = tested on: atherosclerotic lesion in low-density lipoprotein receptor-knockout mice; experiment: Atherosclerosis in low-density lipoprotein receptor-knockout mice fed high cholesterol; assay type: in vivo; settings: LDLR-KO mice; for area of atherosclerotic lesion (ratio of Sudan IV stained area to whole aorta), mean±SD: high-fat diet 8 weeks, control 10.1±4.7%; for inhibition of atherosclerotic lesion (in words): Cilostazol 0.3%, Probucol 0.1 and 0.5%, alone or combined, FIG. 2 and FIG. 3
Protocol: Low-density lipoprotein receptor-knockout (LDLR-KO) mice (J. Clin. Invest. 1993; 92: 883-893) (male, 9 weeks old, which was prepared by and kept in Otsuka Pharmaceutical Co, Ltd.) were used. The animals were treated by grouping in the following six groups. Prior to start the experiment, the body weight of the animals and total cholesterol were measured, and based on both data, the animals were divided into six groups in random by stratified randomization method (SAS Software, R8.1). The doses of Probucol and Cilostazol were determined based on the reports (Horm. Metab. Res. 2001; 33: 472-479, and J. Pharmacol. Exp. Ther. 2005; 313: 502-509), respectively. In control group, mice were administered with a high-fat diet [i.e. a conventional feed (CRF-1, manufactured by Oriental Yeast Industries Co., LTD.) supplemented with cholesterol (1.25%), sodium cholate (0.5%) and cacao butter (15%)] and in the test material-administered group, the mice were administered with the high-fat diet combined with Cilostazol (0.3%) and/or Probucol (0.1% or 0.5%). The high-fat diet was administered to the LDLR-KO mice (since 9 weeks old) in order to induce atherosclerosis (in control group). In the test material-administration groups, the high-fat diet mixed with test material was administered to the mice (since 9 weeks old). The mice in both groups were dissected at eighth weeks after starting the administration of the diet. The atherosclerotic lesion was evaluated by picking up whole of the aorta under ether anesthesia, exposing the inner face of aorta and staining the fats with Sudan IV. The area of the atherosclerotic lesion (containing fats/lipids) in whole of the aorta was counted by image analysis of stained area and whole area of the aorta. 1) In order to confirm the synergistic effects of the combination of Cilostazol and Probucol, two-way ANOVA was carried out between the control group and the Cilostazol-administered group as well as between the Probucol-administered group and two agents-administered group, and thereby the interaction was observed. 2) The effects in Cilostazol- and Probucol-administered group were compared with the effects in control group by Dunnett's test. Moreover, the effects in Cilostazol- and Probucol-administered group were compared with the effects in Cilostazol+Probucol-administered group by Dunnett's test. All tests were done by two-sided test with significant level of 5%, by means of SAS Software (SAS Institute Japan, R8.1). The area of atherosclerotic lesion was calculated as the ratio (%) of the area stained by Sudan IV to the area of whole aorta. The mean values±standard deviation were 10.1±4.7% in Control group, 6.6±2.6% in Cilostazol-administered group, 6.2±2.6% in 0.1% Probucol-administered group, 4.7±1.2% in 0.5% Probucol-administered group, 3.8±1.2% in Cilostazol+0.1% Probucol-administered group, and 2.9±1.5% in Cilostazol+0.5% Probucol-administered group.

[3] = tested on: focal cerebral ischemic injury in rats; experiment: Focal cerebral ischemic injury in rats (transient MCA occlusion, TTC-stained infarct); assay type: in vivo, Sprague-Dawley rats; settings: 2-h MCA occlusion/22-h reperfusion, oral, two times at 5 min and 4 h, cilostazol 20 mg/kg, probucol 30 mg/kg, vs vehicle, FIG. 4
Protocol: Male Sprague-Dawley rats weighing 280-320 g were anesthetized with pentobarbital sodium (20 mg/kg, i.p.), and placed on a heating pad (Homeothermic Blanket System, Harvard Apparatus, South Natick, Mass.) to maintain a constant rectal temperature (37±0.5° C.). Systemic arterial blood pressure, arterial blood gas and pH were measured before, during ischemia and after 22-h reperfusion. Focal cerebral ischemia was induced by transient occlusion of the left middle cerebral artery (MCA) as previously described (Stroke 1989; 20:84-91). Surgical nylon suture thread (3-0 in size) with the round tip was advanced from the external carotid artery into the lumen of the internal carotid artery until blocking the flow of the MCA. Two hours after MCA occlusion, reperfusion was allowed by withdrawal of the suture thread until the tip cleared the internal carotid artery. […] The TTC-stained brain slices were photographed using CCD video camera and the size of an infarct was calculated with image analysis system (Image-Pro Plus, Media Cybernetics, Maryland) and expressed as the percentage of infarcted tissue in reference to the ipsilateral hemisphere. […] Data were expressed as mean±S.E.M. The comparison of the results of hemispheric infarct areas between groups is analyzed by repeated measures analysis of variance followed by Tukey's multiple comparison tests as a post hoc comparison. […]

SMILES: O=C1CCc2cc(OCCCCc3nnnn3C3CCCCC3)ccc2N1 [Cilostazol, 6-[4-(1-cyclohexyl-1H-tetrazol-5-yl)butoxy]-3,4-dihydrocarbostyril]
- urinary glucose, mean±SD [1]: 11 ± 2 mg/dL
- effect on plasma glucose [1]: neither Cilostazol nor Probucol showed any effect
- area of atherosclerotic lesion (ratio of Sudan IV stained area to whole aorta), mean±SD ([2]; 0.3% Cilostazol in diet): 6.6±2.6%
- inhibition of atherosclerotic lesion (in words) [2]: inhibited the atherosclerotic lesion significantly
- hemispheric cerebral infarct area (in words) [3]: marginally reduced

SMILES: CC(C)(Sc1cc(C(C)(C)C)c(O)c(C(C)(C)C)c1)Sc1cc(C(C)(C)C)c(O)c(C(C)(C)C)c1 [Probucol, 4,4′-isopropylidenedithiobis[2,6-di-tert-butylphenol]]
- urinary glucose, mean±SD [1]: 11 ± 3 mg/dL
- effect on plasma glucose [1]: neither Cilostazol nor Probucol showed any effect
- area of atherosclerotic lesion (ratio of Sudan IV stained area to whole aorta), mean±SD ([2]; 0.1% Probucol in diet): 6.2±2.6%
- area of atherosclerotic lesion (ratio of Sudan IV stained area to whole aorta), mean±SD ([2]; 0.5% Probucol in diet): 4.7±1.2%
- inhibition of atherosclerotic lesion (in words) [2]: inhibited the atherosclerotic lesion significantly
- hemispheric cerebral infarct area (in words) [3]: without effect
